Test results taken from US11707442B2, “Antibacterial and antifungal compounds” (The General Hospital Corporation, priority 2015, dated 2023).
Values after ≈ are worked out from the molar mass of the structure shown. Read-outs that look alike come from different tables or passages of the source.

Tests used:
E. faecium = experiment: MIC, broth microdilution; type: cell-based, Enterococcus faecium; settings: for MIC: Enterococcus faecium; for susceptibility of E. faecium: result in words
Outline: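 MIC by CLSI broth microdilution (M07-A8) in MH broth; E. aerogenes, K. pneumoniae and A. baumannii pre-grown in LB, E. faecium in BHI, at 37° C. Inoculum at initial OD600 0.03, incubated 18 hrs at 35° C., growth read as absorbance at 595 nm.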

MRSA strain MW2 = experiment: Checkerboard assay (combination); type: cell-based, Staphylococcus aureus; settings: for Fractional inhibitory concentration index (FICI): MRSA strain MW2, synergy FICI ≤ 0.5
Experimental: Checkerboard assay (e.g., antibiotic synergy test): The antimicrobial or antifungal activity of a combination of a compound of present application with other agents was determined through a checkerboard assay. The checkerboard method for determining synergy of synthetic retinoids with conventional antibiotics can be conducted, for example, as previously described (See, e.g., Rajamuthiah, R. et al. A defensin from the model beetle Tribolium castaneum acts synergistically with telavancin and daptomycin against multidrug resistant Staphylococcus aureus. PLoS ONE 10, e0128576 (2015)) The compounds whose combinations were being tested were arrayed in serial concentrations, vertically for one compound and horizontally for the other compound in the same 96 well microplate. 2-fold serial dilutions of each retinoid were combined with 2-fold serial dilutions of each conventional antibiotic, which created an 8×8 matrix in a 96-well microtiter plate. The rest of the procedure involving addition of pathogen and measurement of growth was carried out as described for measurement of MIC.
The Fractional Inhibitory Concentration (FIC) index for two compounds, A and B, is defined by the following equation: FIC=((A/MIC^A)+(B/MIC^B)). MIC^A and NIC^B are MICs of compound A or B respectively. (A) is the lowest concentration of compound A in combination with compound B that inhibits growth of a pathogen and (B) is the lowest concentration of compound B that inhibits growth of a pathogen.
Optical densities at 600 nm were measured after 18 h of incubation at 37° C. The results represent three independent experiments.

[1] = test system: Salmonella typhimurium strains TA 1535 and TA 1538; settings: for genotoxic potential: Ames test, result in words
Experimental: The Ames test was conducted using histidine auxotroph Salmonella typhimurium strains TA 1535 and TA 1538. To test mutagenic potential of the synthetic retinoids themselves and their metabolic products, the assay was conducted both with and without rat liver S9 fraction (Moltox, Boone, N.C., USA). Briefly, 100 μl of bacterial overnight cultures was added into 500 μl of phosphate buffer containing a range of amounts of the retinoids dissolved in 10 μl DMSO and with or without 4% S9. After incubation at 37° C. for 1 h, the samples were added into 2 ml of soft agar including 0.5 mM of histidine/biotin, mixed, and poured onto minimal glucose agar plates. The plates were incubated at 37° C. for 48 h, and the revertant colonies were counted. 10 μl DMSO was used as a negative control. […] 5 μg/plate 2-aminoanthracene was used as a positive control for both strains in the metabolic activation system. The test was performed in triplicate.

[2] = test system: S. aureus persister cells (stationary phase); experiment: Persister killing assay; type: cell-based, Staphylococcus aureus; settings: for eradication of persisters formed by S. aureus strain VRS1 and 11 clinical S. aureus strains: 10×MIC, 4 h; for viability of MW2 persister cells, single agent: 4 μg/ml CD437 or CD1530 or 10 μg/ml gentamicin alone; for time to complete eradication of MW2 persisters, combination: 4 μg/ml retinoid plus 10 μg/ml gentamicin; for bactericidal concentration against MRSA persisters: MRSA MW2 persisters
Experimental: Persister killing assay. […] Persister cells of these 13 S. aureus strains were developed by growing cultures overnight to stationary phase at 37° C. at 225 rpm. The overnight cultures were washed three times with PBS and diluted to ˜10^7 CFU/ml with the same buffer, which is the same concentration as used in the killing kinetics assay described herein. 1 ml of the persister suspension containing appropriate concentrations of antibiotics was added to the wells of a 2 ml deep well assay block (Corning Costar 3960) and incubated at 37° C., with shaking at 225 rpm. At specific times, 50 μl samples were removed, serially diluted and spot-plated on TSA plates to enumerate the number of live cells. These experiments were conducted in triplicate.

[3] = E. faecium C68, read-out: Minimum inhibitory concentration
[4] = E. faecium D14, read-out: Minimum inhibitory concentration
[5] = E. faecium D24, read-out: Minimum inhibitory concentration
[6] = E. faecium D25, read-out: Minimum inhibitory concentration
[7] = E. faecium D29, read-out: Minimum inhibitory concentration
[8] = E. faecium E007, read-out: Minimum inhibitory concentration
[9] = E. faecium WB213, read-out: Minimum inhibitory concentration
[10] = E. faecium WC176, read-out: Minimum inhibitory concentration
[11] = in combination with Ciprofloxacin

Structure (SMILES)	MIC (E. faecium; [3])	MIC (E. faecium; [5])	MIC (E. faecium; [6])	MIC (E. faecium; [7])	MIC (E. faecium; [9])	interaction with gentamicin (MRSA strain MW2; MRSA MW2, result in words)	genotoxic potential [1]	Number of revertants (T1535) ([1]; With S9, 5 μg/plate)	Number of revertants (T1538) ([1]; With S9, 5 μg/plate)	Number of revertants (T1535) ([1]; With S9, 25 μg/plate)	Number of revertants (T1538) ([1]; With S9, 25 μg/plate)	Number of revertants (T1535) ([1]; With S9, 100 μg/plate)	Number of revertants (T1538) ([1]; With S9, 100 μg/plate)	Number of revertants (T1535) ([1]; Without S9, 5 μg/plate)	Number of revertants (T1538) ([1]; Without S9, 5 μg/plate)	Number of revertants (T1535) ([1]; Without S9, 25 μg/plate)	Number of revertants (T1538) ([1]; Without S9, 25 μg/plate)	Number of revertants (T1535) ([1]; Without S9, 100 μg/plate)	Number of revertants (T1538) ([1]; Without S9, 100 μg/plate)	eradication of persisters formed by S. aureus strain VRS1 and 11 clinical S. aureus strains ([2]; result in words)	also measured
O=C(O)/C=C/c1ccc(-c2ccc(O)c(C34CC5CC(CC(C5)C3)C4)c2)cc1 [Adarotene, (2E)-3-(4′-Hydroxy-3′-tricyclo[3.3.1.13,7]dec-1-yl[1,1′-biphenyl]-4-yl)-2-propenoic acid]	4 µg/mL (≈ 10.7 µM)	2 µg/mL (≈ 5.34 µM)	4 µg/mL (≈ 10.7 µM)	2 µg/mL (≈ 5.34 µM)	2 µg/mL (≈ 5.34 µM)	significant synergistic antimicrobial activity	did not show significant genotoxic potential	6 ± 2	8 ± 4	7 ± 3	8 ± 1	7 ± 1	7 ± 3	6 ± 1	6 ± 1	7 ± 3	4 ± 3	6 ± 2	5 ± 2	not	MIC (E. faecium; [4]): 4 µg/mL (≈ 10.7 µM); MIC (E. faecium; [8]): 4 µg/mL (≈ 10.7 µM); MIC (E. faecium; [10]): 4 µg/mL (≈ 10.7 µM); Fractional inhibitory concentration index (FICI) (MRSA strain MW2; [11]): 0.75; Fractional inhibitory concentration index (FICI) (MRSA strain MW2; in combination with Defensin 1): 1; Fractional inhibitory concentration index (FICI) (MRSA strain MW2; in combination with Gentamicin): 0.5; Fractional inhibitory concentration index (FICI) (MRSA strain MW2; in combination with Rifampicin): 1; Fractional inhibitory concentration index (FICI) (MRSA strain MW2; in combination with Vancomycin): 1.016; eradication of S. aureus strain MW2 persisters ([2]; 8×MIC, result in words): did not
O=C(O)c1ccc2cc(-c3ccc(O)c(C45CC6CC(CC(C6)C4)C5)c3)ccc2c1 [CD437, 6-(4-hydroxy-3-tricyclo[3.3.1.13,7]dec-1-ylphenyl)-2-naphthalenecarboxylic acid]	–	1 µg/mL (≈ 2.51 µM)	1 µg/mL (≈ 2.51 µM)	1 µg/mL (≈ 2.51 µM)	1 µg/mL (≈ 2.51 µM)	significant synergistic antimicrobial activity	did not show significant genotoxic potential	6 ± 3	9 ± 3	8 ± 3	10 ± 2	8 ± 3	6 ± 1	6 ± 2	5 ± 2	5 ± 2	4 ± 1	8 ± 2	3 ± 3	annihilated	susceptibility of E. faecium (E. faecium): susceptible; interaction with defensin 1 (MRSA strain MW2; MRSA MW2, result in words): synergism; viability of MW2 persister cells, single agent [2]: did not significantly affect; time to complete eradication of MW2 persisters, combination [2]: ≤ 3 h; bactericidal concentration against MRSA persisters [2]: 8 µg/mL
O=C(O)c1ccc(-c2ccc3cc(O)c(C45CC6CC(CC(C6)C4)C5)cc3c2)cc1 [CD1530, 4-(6-hydroxy-7-tricyclo[3.3.1.13,7]dec-1-yl-2-naphthalenyl)-benzoic acid]	2 µg/mL (≈ 5.02 µM)	1 µg/mL (≈ 2.51 µM)	1 µg/mL (≈ 2.51 µM)	1 µg/mL (≈ 2.51 µM)	1 µg/mL (≈ 2.51 µM)	significant synergistic antimicrobial activity	did not show significant genotoxic potential	7 ± 3	7 ± 3	7 ± 2	10 ± 4	8 ± 2	8 ± 2	7 ± 3	3 ± 3	7 ± 2	4 ± 2	8 ± 4	4 ± 2	annihilated	MIC (E. faecium; [4]): 2 µg/mL (≈ 5.02 µM); MIC (E. faecium; [8]): 2 µg/mL (≈ 5.02 µM); MIC (E. faecium; [10]): 2 µg/mL (≈ 5.02 µM); MIC (E. faecium; E. faecium, (range given for E. faecium and E. faecalis), read-out: MIC): 2 to 4 µg/mL (≈ 5.02 to 10 µM); susceptibility of E. faecium (E. faecium): susceptible; Fractional inhibitory concentration index (FICI) (MRSA strain MW2; [11]): 0.75; Fractional inhibitory concentration index (FICI) (MRSA strain MW2; in combination with Defensin 1): 1; Fractional inhibitory concentration index (FICI) (MRSA strain MW2; in combination with Gentamicin): 0.5; Fractional inhibitory concentration index (FICI) (MRSA strain MW2; in combination with Rifampicin): 0.75; Fractional inhibitory concentration index (FICI) (MRSA strain MW2; in combination with Vancomycin): 1; viability of MW2 persister cells, single agent [2]: did not significantly affect; time to complete eradication of MW2 persisters, combination [2]: ≤ 4 h; bactericidal concentration against MRSA persisters [2]: 8 µg/mL
